Measurements: PubChem BioAssay (NCI)
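Tested at 5 concentrations; 48 h exposure; 96-well plates; endpoints linearly interpolated, else capped at highest concentration. At the GI50, growth is halved. TGI denotes the concentration required for complete inhibition of growth.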

Assays:
Test in all cases: NCI tumour cell line growth inhibition, 48 h
BT-549 breast = test system: BT-549 breast
HCT-15 colon = test system: HCT-15 colon
SW-620 colon = test system: SW-620 colon
DU-145 prostate = test system: DU-145 prostate
SNB-75 CNS = test system: SNB-75 CNS
HL-60(TB) leukemia = test system: HL-60(TB) leukemia
KM12 colon = test system: KM12 colon
UACC-62 melanoma = test system: UACC-62 melanoma
ACHN renal = test system: ACHN renal
OVCAR-4 ovarian = test system: OVCAR-4 ovarian
OVCAR-8 ovarian = test system: OVCAR-8 ovarian
HOP-92 NSCLC = test system: HOP-92 NSCLC
NCI-H23 lung = test system: NCI-H23 lung
NCI-H226 lung = test system: NCI-H226 lung
SNB-19 CNS = test system: SNB-19 CNS
MDA-MB-231 breast = test system: MDA-MB-231 breast
K-562 leukemia = test system: K-562 leukemia
NCI-H460 lung = test system: NCI-H460 lung
SK-MEL-28 melanoma = test system: SK-MEL-28 melanoma
A549 NSCLC = test system: A549 NSCLC
A498 renal = test system: A498 renal
786-0 renal = test system: 786-0 renal
MCF7 breast = test system: MCF7 breast
SK-MEL-5 melanoma = test system: SK-MEL-5 melanoma
PC-3 prostate = test system: PC-3 prostate
CAKI-1 renal = test system: CAKI-1 renal
OVCAR-3 ovarian = test system: OVCAR-3 ovarian
SK-OV-3 ovarian = test system: SK-OV-3 ovarian
LOX IMVI melanoma = test system: LOX IMVI melanoma
TK-10 renal = test system: TK-10 renal
SN12C renal = test system: SN12C renal
U251 CNS = test system: U251 CNS
MOLT-4 leukemia = test system: MOLT-4 leukemia
SF-539 CNS = test system: SF-539 CNS
RXF 393 renal = test system: RXF 393 renal
MDA-MB-435 = test system: MDA-MB-435
CCRF-CEM leukemia = test system: CCRF-CEM leukemia
OVCAR-5 ovarian = test system: OVCAR-5 ovarian
MALME-3M melanoma = test system: MALME-3M melanoma
SF-268 CNS = test system: SF-268 CNS
HOP-62 NSCLC = test system: HOP-62 NSCLC
SR leukemia = test system: SR leukemia
IGROV1 ovarian = test system: IGROV1 ovarian
SF-295 CNS = test system: SF-295 CNS
NCI-H522 lung = test system: NCI-H522 lung
UO-31 renal = test system: UO-31 renal
HCT-116 colon = test system: HCT-116 colon
MDA-MB-468 breast = test system: MDA-MB-468 breast
HCC-2998 colon = test system: HCC-2998 colon
T-47D breast = test system: T-47D breast
UACC-257 melanoma = test system: UACC-257 melanoma
M14 melanoma = test system: M14 melanoma
HT29 colon = test system: HT29 colon
EKVX NSCLC = test system: EKVX NSCLC
RPMI-8226 leukemia = test system: RPMI-8226 leukemia
COLO 205 colon = test system: COLO 205 colon
HS 578T breast = test system: HS 578T breast

## O=C(COc1ccc(NC(=O)Nc2ccc(Cl)cc2)cc1)N/N=C/c1ccccc1
BT-549 breast
  GI50: 4.41 µM
  TGI: 56.2 µM
HCT-15 colon
  GI50: 5.85 µM
  TGI: > 100 µM
SW-620 colon
  GI50: 6.03 µM
  TGI: > 100 µM
DU-145 prostate
  GI50: 4.51 µM
  TGI: > 100 µM
SNB-75 CNS
  GI50: 3.95 µM
  TGI: 24.3 µM
HL-60(TB) leukemia
  GI50: > 100 µM
  TGI: > 100 µM
KM12 colon
  GI50: > 100 µM
  TGI: > 100 µM
UACC-62 melanoma
  GI50: 2.82 µM
  TGI: 13.7 µM
ACHN renal
  GI50: 4.64 µM
  TGI: 37.6 µM
OVCAR-4 ovarian
  GI50: 3.34 µM
  TGI: 68.7 µM
OVCAR-8 ovarian
  GI50: 3.81 µM
  TGI: > 100 µM
HOP-92 NSCLC
  GI50: 3 µM
  TGI: 16 µM
NCI-H23 lung
  GI50: 4.21 µM
  TGI: 25.9 µM
NCI-H226 lung
  GI50: 2.85 µM
  TGI: 9.82 µM
SNB-19 CNS
  GI50: 4.42 µM
  TGI: 20.7 µM
MDA-MB-231 breast
  GI50: 8.57 µM
  TGI: 47.6 µM
K-562 leukemia
  GI50: 12.6 µM
  TGI: > 100 µM
NCI-H460 lung
  GI50: 3.22 µM
  TGI: > 100 µM
SK-MEL-28 melanoma
  GI50: 3.87 µM
  TGI: 43.1 µM
A549 NSCLC
  GI50: 4.67 µM
  TGI: > 100 µM
A498 renal
  GI50: 20.1 µM
  TGI: 50.9 µM
786-0 renal
  GI50: 6.26 µM
  TGI: 24.9 µM
MCF7 breast
  GI50: 3.88 µM
  TGI: > 100 µM
SK-MEL-5 melanoma
  GI50: 8.49 µM
  TGI: > 100 µM
PC-3 prostate
  GI50: 2.81 µM
  TGI: 21.2 µM
CAKI-1 renal
  GI50: 15 µM
  TGI: > 100 µM
OVCAR-3 ovarian
  GI50: 4.15 µM
  TGI: 54.2 µM
SK-OV-3 ovarian
  GI50: 6.06 µM
  TGI: 25.8 µM
LOX IMVI melanoma
  GI50: 7.1 µM
  TGI: > 100 µM
TK-10 renal
  GI50: 20.2 µM
  TGI: 63.8 µM
SN12C renal
  GI50: 7.64 µM
  TGI: > 100 µM
U251 CNS
  GI50: 4.05 µM
  TGI: > 100 µM
MOLT-4 leukemia
  GI50: 59.5 µM
  TGI: > 100 µM
SF-539 CNS
  GI50: 6.23 µM
  TGI: 27.4 µM
RXF 393 renal
  GI50: 4.55 µM
  TGI: 19 µM
MDA-MB-435
  GI50: 3.76 µM
  TGI: > 100 µM
CCRF-CEM leukemia
  GI50: 21.8 µM
  TGI: > 100 µM
OVCAR-5 ovarian
  GI50: > 100 µM
  TGI: > 100 µM
MALME-3M melanoma
  GI50: 4.44 µM
  TGI: 71.7 µM
SF-268 CNS
  GI50: 16.2 µM
  TGI: 99.8 µM
HOP-62 NSCLC
  GI50: 2.62 µM
  TGI: 11.1 µM
SR leukemia
  GI50: 4.59 µM
  TGI: 33.1 µM
IGROV1 ovarian
  GI50: 14.1 µM
  TGI: > 100 µM
SF-295 CNS
  GI50: 2.69 µM
  TGI: 13.7 µM
NCI-H522 lung
  GI50: 7.74 µM
  TGI: > 100 µM
UO-31 renal
  GI50: 86.4 µM
  TGI: > 100 µM
HCT-116 colon
  GI50: 1.68 µM
  TGI: 12.6 µM
MDA-MB-468 breast
  GI50: 3.23 µM
  TGI: 10.6 µM
HCC-2998 colon
  GI50: 22.5 µM
  TGI: > 100 µM
T-47D breast
  GI50: 8.22 µM
  TGI: > 100 µM
UACC-257 melanoma
  GI50: 17.4 µM
  TGI: > 100 µM
M14 melanoma
  GI50: 5.02 µM
  TGI: > 100 µM
HT29 colon
  GI50: 31.2 µM
  TGI: > 100 µM
EKVX NSCLC
  GI50: 6.09 µM
  TGI: 90.8 µM
RPMI-8226 leukemia
  GI50: 63.9 µM
  TGI: > 100 µM
COLO 205 colon
  GI50: 19 µM
  TGI: > 100 µM
HS 578T breast
  GI50: 7.71 µM
  TGI: 54.2 µM
